# Reference: patent US8128963B2, “Methods for treating ischemic disorders using carbon monoxide” (The Trustees of Columbia University in the City Of New York, priority 1999, dated 2012)
# Tests used:
# [1] = tested on: murine model of focal cerebral ischemia; assay: Murine focal cerebral ischemia, carbon monoxide inhalation and heme oxygenase blockade; type: in vivo, mouse; details: for infarct volume / mortality: vs controls
# Protocol: FIGS. 23A and 23B. FIG. 23A. The effect of carbon monoxide inhalation on cerebral infarct volumes. Mice were placed in bell jars, in which they were exposed to 0.1% CO for 12 hours. After this treatment, they were removed from the bell jars and subjected to intraluminal occlusion of the middle cerebral artery. At 24 hours, animals were sacrificed and infarct volumes measured by triphenyltetrazolium chloride (TTC) staining as shown in FIG. 25. Quantification of infarction volumes (mean±SEM) is expressed as the percent of infarction of the ipsilateral hemisphere.
# Protoporphyrin preparation and administration. Tin protoporphyrin IX dichloride (20 mg, Porphyrin Products, Logan, Utah), zinc protoporphyrin IX (17 mg, Porphyrin Products, Logan, Utah), or biliverdin (18 mg, Porphyrin Products, Logan, Utah) was initially dissolved in dimethyl sulfoxide (2 mL). An aliquot of this solution (200 μL) was added to normal saline (9.8 mL) and this mixture was vortexed vigorously to yield a 2.7×10^−4 M solution of the protoporphyrin. The solution container was wrapped in aluminum foil to prevent photolysis of the protoporphyrin and stored at 4° C. until used.
# Micro-osmotic pumps (#1003D, Alza Corp., Palo Alto, Calif.) were loaded with this protoporphyrin solution (91 μL/pump) and implanted subcutaneously in the anesthetized mouse via a 1 cm dorsal midline incision 24 h prior to the start of surgery. These pumps administer drug solution at a rate of 0.95±0.02. μL/h. At the time of surgery an additional dose of the protoporphyrin solution was administered (0.3 mL, i.v.) prior to insertion of the intralumenal occluding catheter. Each animal received the following total (injection+pump) drug amounts over the course of the study tin protoporphyrin (0.070 mg), zinc protoporphyrin (0.059 mg), or biliverdin (0.061 mg).
# Human umbilical vein ECs = assay: vWF release from hypoxic endothelial cells (ELISA); type: cell-based
# Protocol: Endothelial cell culture and exposure of cells to H or H/R. Human umbilical vein ECs were prepared from umbilical cords and grown in culture by the method of Jaffe (16) as modified by Thornton (17). Experiments utilized confluent ECs (passages 1-4) grown in Medium 199 supplemented with fetal bovine serum (15%; Gemini, Calabasas, Calif.), human serum (5%; Gemini), endothelial growth supplement (Sigma, St. Louis, Mo.), heparin (90 μg/ml; Sigma) and antibiotics, as described (17). When ECs achieved confluence, experiments were performed by placing cultures in an environmental chamber (Coy Laboratory Products, Ann Arbor, Mich.) which provided a controlled temperature (37° C.) and atmosphere with the indicated amount of oxygen, carbon dioxide (5%) and the balance made up of nitrogen. Use of this chamber for cell culture experiments has been described previously (15,18). During exposure of ECs to hypoxia (for a maximum of 16 hours), the oxygen tension in the culture medium was 14-18 torr and there was no change in the medium pH. Reoxygenation was performed by placing ECs in an ambient atmosphere containing carbon dioxide (5%) at 37° C.
# Measurement of Weibel-Palade body exocytosis: ECs were plated into 24 well plates, rinsed 3 times with Hank's balanced salt solution, and then exposed to hypoxia or to normoxia for the indicated durations. For experiments in which vWF was measured, cells were maintained in serum-free medium. All other EC experiments were performed in the EC growth medium described above. For measurement of vWF, 200 μL aliquots of culture supernatant was removed at the indicated times, and a commercially available ELISA (American Diagnostica, Greenwich, Conn.), based on a polyclonal goat anti-human vWF antibody, was performed on duplicate specimens, with a standard curve generated using purified human vWF antigen supplied by the same vendor. EC P-selectin expression was determined by measuring the specific binding of a murine monoclonal anti-human P-selectin antibody (WAPS 12.2 clone, Endogen, Cambridge, Mass.; this is an IgGl which recognizes a calcium sensitive epitope and blocks P-selectin dependent neutrophil adhesion. Antibody was radiolabelled with ^125I by the lactoperoxidase method (19) using Enzymobeads (Bio-Rad, Hercules, Calif.), stored at 4° C. and used within one week of labelling. Binding assays were performed on HUVECs plated on 96 well plates, in which fresh M199 with 0.1% bovine serum albumin (Sigma, St. Louis, Mo.) was added immediately prior to each experiment. Cells were placed in a humidified environment at 37° C., and exposed to normoxia or H (in the presence or absence of 50 μM probucol, as indicated, Sigma) for the indicated durations. Cell monolayers were fixed for 15 min. with 1% paraformaldehyde^10 (cells exposed to H were fixed while still within the hypoxic environment), visually inspected to ensure that the monolayers remained intact, and washed twice with HBSS containing 0.5% bovine serum albumin (HBSS/A). Monolayers were then exposed to 10^5 cpm of ^125I-labelled anti-P-selectin antibody (WAPS 12.2) in the presence of 200 μg/mL of either unlabelled blocking antibody (WAPS 12.2) or nonblocking anti-P-selectin IgG of the same isotype (anti-GMP-140, AC1.2 clone, Becton-Dickinson, San Jose, Calif.) (20,21). After binding for 1 hour at 37° C., monolayers were washed 4 times with HBSS/A, and bound antibody was eluted with 1% triton X-100 in PBS (200 μL/well) and counted. […]
# P-selectin = assay: Surface P-selectin expression on hypoxic HUVECs (radiolabeled anti-PS antibody binding); type: cell-based, human
# Protocol: (§1) Hypoxia or free radicals induce P-selectin (PS) translocation to the endothelial cell (EC) surface, where it participates in neutrophil (PMN) adhesion during reperfusion. To explore a mechanism whereby nitrovasodilators may attenuate postischemic leukosequestration, we tested whether stimulating the NO/cGMP pathway could attenuate surface PS expression in hypoxic human umbillical vein ECs. […] Under similar conditions, addition of the NO donor 3-morpholino sydnonimine (SIN-1, 0.1 mM) or the cGMP analog 8-Bromo-cGMP (cGMP, 10 nM) caused a reduction in vWF release; Control vWF, 11±0.4 mU/mL; SIN-1, 9.1±0.3 mU/mL; cGMP, 9.7±0.2 mU/mL; p<0.005 for both SIN-1 or cGMP vs Control.
# hypoxic HUVECs = assay: Immunofluorescent adherence assay, HL60 binding to hypoxic HUVECs; type: cell-based, human
# Protocol: as §1
# [2] = tested on: hypoxic human umbillical vein ECs; assay: vWF release from hypoxic HUVECs, NO/cGMP pathway; type: cell-based; details: hypoxia pO2<20 Torr 4 hours; SIN-1 0.1 mM, 8-Bromo-cGMP 10 nM
# Protocol: as §1
# [3] = tested on: lung ischemia (lung preservation for transplantation); assay: Rat orthotopic left lung transplantation after 6 h preservation, donor CO pretreatment; type: in vivo
# Protocol: Inbred male Lewis rats (250-300 gms) were used for all experiments according to a protocol approved by the Institutional Animal Care and Use Committee at Columbia University, in accordance with guidelines set forth by the American Academy for Accreditation of Laboratory Animal Care (AAALAC). Lung transplant experiments were performed in the following manner. Donor rats were given 500 units of heparin intravenously, and the pulmonary artery (PA) was flushed with a 30 mL volume of 4° C. preservation solution at a constant pressure of 20 mm Hg. When lungs are preserved in this manner, most of the infused flush solution comes out of a left atrial vent created in the lung donor, as well as out of the pulmonary veins following transection.
# The left lung was then harvested, a cuff was placed on each vascular stump, a cylinder was inserted into the bronchus, and the lung was submerged for 6 hours in 4° C. preservation solution which was identical to the PA flush solution. Gender/strain/size matched rats were anesthetized, intubated, and ventilated with 100% O2 using a rodent ventilator (Harvard Apparatus, South Natick, Mass.). Orthotopic left lung transplantation was performed through a left thoracotomy using a rapid cuff technique for all anastomoses, with warm ischemic times maintained below 5 minutes. The hilar cross-clamp was released, re-establishing blood flow and ventilation to the transplanted lung. A snare was then passed around the right PA, and Millar catheters (2F; Millar Instruments, Houston, Tex.) were introduced into the main PA and the left atrium (LA). A Doppler flow probe (Transonics, Ithaca, N.Y.) was placed around the main PA.
# Online hemodynamic monitoring was accomplished using MacLab and a Macintosh IIci computer. Measured hemodynamic parameters included LA and PA pressures (mm Hg), and PA flow (mL/min). Arterial oxygen tension (pO2, mm Hg) was measured during inspiration of 100% O2 using a model ABL-2 gas analyzer (Radiometer, Copenhagen, Denmark). PVRs were calculated as (mean PA pressure—LA pressure)/mean PA flow and expressed as mm Hg/mL/min. After baseline measurements, the native right PA was ligated and serial measurements taken every five minutes until the time of euthanasia at 30 minutes (or until recipient death).
# At the indicated time before surgery (4,8, or 12 hours), rats were placed in a bell jar, and carbon monoxide was administered at various concentrations (0.01%, 0.03%, or 0.1%), with the remainder of the gas mixture consisting of room air. (The gas was passed through a jar of water prior to administration, in order to humidify it for animal comfort). At the indicated times following initiation of exposure, rats were anesthetized and lungs harvested as described above. These donor lungs were used in subsequent lung transplant experiments.
# acute ischemic stroke = details: cited from earlier work
# [4] = CO-pretreated donor lungs vs untreated controls
compound,measurement,setting,value
"C=CC1=C(C)/C(=C/C2=NC(=C\c3[nH]c(/C=C4\NC(=O)C(C)=C4C=C)c(C)c3CCC(=O)O)/C(CCC(=O)O)=C2C)NC1=O [Biliverdin, biliverdin]",effect on stroke outcome (cerebral protection),"[1]; osmotic pump plus i.v. dose, total 0.061 mg",without effect
"O=C(O)CN(CCOCCOCCN(CC(=O)O)CC(=O)O)CC(=O)O [EGTA, ethyleneglycol bis (aminoethylether) tetraacetic acid]",H-induced EC release of vWF,"Human umbilical vein ECs; 0 mM Ca++ with 2 mM EGTA, 8 hrs",even more suppressive effect
"N=c1c[n+](N2CCOCC2)[n-]o1 [SIN-1, 3-morpholino sydnonimine]",PS expression in calcium-free medium,P-selectin; ECs in calcium-free medium,Neither SIN-1 nor cGMP could further reduce PS expression
same,decrease of surface PS expression vs controls,"P-selectin; hypoxia 4 hours, SIN-1 0.1 mM, 8-Bromo-cGMP 10 nM",40%
same,decrease of HL60 binding to hypoxic HUVECs vs controls,hypoxic HUVECs,53%
same,vWF release,[2],9.1±0.3 mU/mL
[C-]#[O+] [carbon monoxide],mortality at 24 hours,[1]; 0.1% CO inhaled for 12 hours before MCA occlusion,reduces mortality
same,cerebral infarct volume,"[1]; 0.1% CO inhaled for 12 hours before MCA occlusion, 24 hours",reduces infarct volumes
same,inhaled CO dose providing optimal protection (infarct volume),[1]; dose-response of inhaled CO,0.1%
same,level of protection,[3]; 0.01% dose,least protection
same,level of protection,[3]; 0.03% dose,intermediate level of protection
same,level of protection,[3]; 0.1% dose,best protection
same,survival of recipients,[3]; CO-pretreated donor lungs vs controls,Improved survival
same,arterial oxygenation of recipients,[3]; [4],Improved arterial oxygenation
same,pulmonary arterial blood flow,[3]; [4],Increased pulmonary arterial blood flow
same,pulmonary vascular resistance,[3]; [4],reduced pulmonary vascular resistance
same,time dependence of protection,"[3]; exposure 4, 8 or 12 hours before surgery",longer exposures appeared to provide the greatest protection
CC(C)(Sc1cc(C(C)(C)C)c(O)c(C(C)(C)C)c1)Sc1cc(C(C)(C)C)c(O)c(C(C)(C)C)c1 [probucol],vWF levels following reoxygenation of hypoxic ECs,Human umbilical vein ECs; probucol 50 μM,blunt the further increase in vWF levels
same,effect on H-mediated exocytosis of Weibel-Palade bodies (vWF release),Human umbilical vein ECs; probucol 50 μM added at onset of H,no effect
same,vWF in culture supernatant,"Human umbilical vein ECs; probucol 50 μM added at onset of H, 6 hours of H",4.7±0.31×10^−3 U/ml
"C=CC1=C(C)C2=Cc3c(C=C)c(C)c4[n]3[Sn]([Cl])([Cl])[n]3c(c(C)c(CCC(=O)O)c3=CC3=NC(=C4)C(C)=C3CCC(=O)O)=CC1=N2 [tin protoporphyrin, Tin protoporphyrin IX dichloride]",infarct volume,[1]; heme oxygenase blockade,significantly larger infarct volumes
same,mortality,[1]; heme oxygenase blockade,increased mortality
same,neurological outcome,"[1]; heme oxygenase blockade, vs untreated controls",worse neurological outcomes
same,local CO levels by direct measurement,[1]; osmotic pump from 24 h before surgery plus i.v. dose,reduced local CO levels
C=CC1=C(C)c2cc3[n-]c(cc4[n-]c(cc5nc(cc1n2)C(C)=C5C=C)c(C)c4CCC(=O)O)c(CCC(=O)O)c3C.[Zn+2] [zinc protoporphyrin IX],infarct volume,[1]; heme oxygenase blockade,increase
same,mortality,[1]; heme oxygenase blockade,increase
streptokinase,rate of hemorrhagic transformation,acute ischemic stroke; given in the first several (<6) hours following stroke onset,up to 67%
same,6 month mortality,acute ischemic stroke; outside the therapeutic window,73%
same,10 day mortality,acute ischemic stroke; outside the therapeutic window,34.0%
